For assay [1], the target named is T1, AcmJRL (Ananas comosus, UniProt Q53J09).
T1 sequence (Q53J09 1-145): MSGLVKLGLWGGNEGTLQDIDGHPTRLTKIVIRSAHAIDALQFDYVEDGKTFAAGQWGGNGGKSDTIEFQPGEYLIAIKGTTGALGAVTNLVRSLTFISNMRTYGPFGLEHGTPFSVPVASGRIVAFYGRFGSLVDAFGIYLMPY
It counts as binding. The conditions noted are these: for RFU: FITC‐labelled AcmJRL at 50 μg mL^−1, average RFU±s.d. from 6 replicates.

Assay [2] concerns the target T2, AcmJRL (Ananas comosus, UniProt Q53J09).
T2 sequence (Q53J09 2-145): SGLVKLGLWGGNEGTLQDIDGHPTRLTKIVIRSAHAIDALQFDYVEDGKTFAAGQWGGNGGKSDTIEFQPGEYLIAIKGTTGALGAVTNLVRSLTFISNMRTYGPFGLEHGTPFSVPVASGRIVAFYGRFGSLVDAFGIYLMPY
It counts as biochemical. To be noted: SD, n = 3.

Assay [3] addresses human angiotensin-converting-enzyme-2 (ACE2) receptor, recombinant (human) (UniProt Q9BYF1). Put plainly: SPR.
The target of assay [4] is SARS-CoV-2 spike RBD (SARS-CoV-2) (UniProt P0DTC2). Put plainly: SPR.
For assay [5], the target named is T1, AcmJRL. Put plainly: Reporter ligand displacement assay. It counts as binding. To be noted: carbohydrate at 10 mM.
The target in assay [6] is T1, AcmJRL. Put plainly: Semiotik glycan array with Cy3-labelled AcmJRL. Format: binding.
The test system of assay [7] is AcmJRL−S‐protein interaction. Format: binding, SARS‐CoV‐2.

Several values for one entry are separate records, joined by “and”; a condition that tells them apart may be missing. Equal entries are not always repeated.

Sequence of human angiotensin-converting-enzyme-2 (ACE2) receptor, recombinant (human) (Q9BYF1 18-740): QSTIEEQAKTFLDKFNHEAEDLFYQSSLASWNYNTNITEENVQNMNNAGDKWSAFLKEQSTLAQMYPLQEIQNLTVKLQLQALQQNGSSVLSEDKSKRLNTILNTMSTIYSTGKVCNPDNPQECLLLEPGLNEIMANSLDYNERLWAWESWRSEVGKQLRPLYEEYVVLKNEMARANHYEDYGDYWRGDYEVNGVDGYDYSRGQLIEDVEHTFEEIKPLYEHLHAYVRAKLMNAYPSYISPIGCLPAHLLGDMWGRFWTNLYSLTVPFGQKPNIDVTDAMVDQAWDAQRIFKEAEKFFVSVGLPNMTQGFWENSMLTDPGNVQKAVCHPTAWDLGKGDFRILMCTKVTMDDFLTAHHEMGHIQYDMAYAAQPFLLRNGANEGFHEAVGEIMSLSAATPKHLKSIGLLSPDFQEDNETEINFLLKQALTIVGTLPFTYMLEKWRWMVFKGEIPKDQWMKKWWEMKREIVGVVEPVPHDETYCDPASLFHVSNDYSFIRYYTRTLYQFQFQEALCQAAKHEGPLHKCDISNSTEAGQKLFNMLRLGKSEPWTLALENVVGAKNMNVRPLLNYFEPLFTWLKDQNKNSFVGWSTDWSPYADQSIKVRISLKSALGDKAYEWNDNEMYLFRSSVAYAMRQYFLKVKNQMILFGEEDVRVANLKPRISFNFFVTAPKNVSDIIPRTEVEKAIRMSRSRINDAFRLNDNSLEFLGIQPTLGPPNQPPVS

In assay [1], `OC[C@H]1O[C@H](O[C@H]2[C@H](O)[C@@H](O)[C@H](O)O[C@@H]2CO)[C@H](O)[C@@H](O)[C@@H]1O` [CFG‐GLYCAN ID 195, Glc‐α‐1,4‐Glc‐β] registered an RFU of 33±5 RFU.
On to `CO[C@H]1O[C@H](CO)[C@@H](O)[C@H](O)[C@@H]1O` [Me-α-D-Man, methyl α-D-mannopyranoside], for which, in assay [2], the IC50 came out at 10700 µM.
“Man‐α‐1,6(Man‐α‐1,3)Man‐α‐1,6(Man‐α‐1,3)Man‐β [CFG‐GLYCAN ID 310]” returned an RFU in assay [1] of 410±141 RFU. In assay [1] (FITC‐labelled AcmJRL, 5 and 50 μg mL^−1), the “binding response on CFG glycan array (in words)” value was “highest binding responses”.
For “pineapple-derived jacalin-related lectin AcmJRL (natural protein)”, in assay [3], the Kd stood at 22.1 µM, the koff stood at 0.0122 s⁻¹ and the kon came out at 590 M⁻¹ s⁻¹. Moreover, in assay [4], the Kd was 12.9 µM and 35 µM; the koff was determined as 0.0194 s⁻¹; the kon was determined as 1490 M⁻¹ s⁻¹.
Regarding `O=C[C@H](O)[C@@H](O)[C@H](O[C@@H]1O[C@H](CO)[C@@H](O)[C@H](O)[C@H]1O)[C@H](O)CO` [cellobiose, Glc‐β‐1,4‐Glc], in assay [5], the “inhibition of AcmJRL, single concentration (in words)” value (shortened to “inhibition of AcmJRL”) was “had no effect”.
In the case of “-3GalNAcβ1-4(L6dTalα1-3)Manα1-3L6dTalα1- [A. hydrophila O34deAc]”, the “binding on Semiotik glycan array (in words)” value in assay [6] is “recognised”.
As to `OC[C@H]1O[C@H](O[C@H]2[C@H](O)[C@@H](O)[C@H](O)O[C@@H]2CO)[C@H](O)[C@@H](O)[C@@H]1O` [maltobiose, Glc‐α‐1,4‐Glc], the “inhibition of AcmJRL” value in assay [5] is listed as “showed highest inhibition”.
As for `CC(=O)N[C@@H]1[C@@H](O)[C@H](O)[C@@H](CO)O[C@H]1O` [D-GlcNAc, N‐acetylglucosamine], in assay [5], the “inhibition of AcmJRL” value was “confirmed as ligands”.
Take `N[C@H]1C(O)O[C@H](CO)[C@@H](O)[C@@H]1O` (some centres unmarked) [glucosamine]: the “inhibition of AcmJRL” value in assay [5] was “confirmed as ligands”.
For the compound -6Manα1- [Mannan], the “binding on Semiotik glycan array (in words)” value in assay [6] is given as “confirmed as a ligand”.
On to `OC[C@H]1O[C@@H](O[C@H]2[C@H](O)[C@@H](O)[C@H](O)O[C@@H]2CO)[C@H](O)[C@@H](O)[C@H]1O` [D‐lactose, Gal‐β‐1,4Glc], for which, in assay [7], the “effect on AcmJRL binding to S-protein (in words)” value is given as “did not interfere”.
Same read-out and setting: the same measure for `OC[C@H]1O[C@H](OC[C@H]2O[C@H](O[C@]3(CO)O[C@H](CO)[C@@H](O)[C@@H]3O)[C@H](O)[C@@H](O)[C@@H]2O)[C@H](O)[C@@H](O)[C@H]1O` [D‐raffinose, Gal‐α‐1,6Glc‐α‐1,2Fruc]: “did not interfere”.
As for Manα1-6(Manα1-3)Manβ-sp4 [(Ma)3b], the “binding on Semiotik glycan array (in words)” value in assay [6] was “showed no binding”.
Still for that read-out and setting: the same measure for “-8(D-Ala1-7)Leg5Acα2-4GlcAβ1-3GlcNAcβ1- [E. coli O161]”: “recognised”.
